Laboratory results: PubChem BioAssay AID192 (DTP/NCI, 2004)
“And” between values parts separate entries of the source, which are not always exact repeats. Identical values can stand only once. Toxic doses and inconclusive results are not listed. Rule for the calls: active = survival T/C of 150% or more; inactive = T/C below 125% in these data.

Tested on: BDF1 mice, B16 melanoma ip, median survival T/C
Assay: NCI In Vivo Anticancer Drug Screen. Data for tumor model B16 Melanoma (intraperitoneal) in B6D2F1 (BDF1) mice
Details: endpoint: median survival time, higher = longer survival
In short: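 Antitumor activity is assessed in mice bearing a transplanted tumor, with survival or tumor size compared against vehicle-dosed controls and expressed as T/C.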

[1] = dose: 12.5 mg/kg/injection, schedule: Q01DX009 (ip), vehicle: Klucel (hydroxypropylcellulose) (HPC)
[2] = dose: 25.0 mg/kg/injection, schedule: Q01DX009 (ip), vehicle: Klucel (hydroxypropylcellulose) (HPC)
[3] = dose: 50.0 mg/kg/injection, schedule: Q01DX009 (ip), vehicle: Klucel (hydroxypropylcellulose) (HPC)
[4] = dose: 100.0 mg/kg/injection, schedule: Q01DX009 (ip), vehicle: Klucel (hydroxypropylcellulose) (HPC)
[5] = dose: 100.0 mg/kg/injection, schedule: Q01DX009 (ip), vehicle: saline with Tween-80
[6] = dose: 4.0 mg/kg/injection, schedule: Q01DX009 (ip), vehicle: saline
[7] = dose: 200.0 mg/kg/injection, schedule: Q01DX009 (ip), vehicle: Klucel (hydroxypropylcellulose) (HPC)

Measured: T/C

CCC(c1ccc(OC(=O)Cc2ccc(N(CCCl)CCCl)cc2)cc1)C(CC)c1ccc(OC(=O)Cc2ccc(N(CCCl)CCCl)cc2)cc1 (stereo not drawn)
inactive: dose: 6.25 mg/kg/injection, schedule: Q01DX009 (ip), vehicle: Klucel (hydroxypropylcellulose) (HPC) 106 % of control | [1] 110 % of control | [2] 96 % of control | [3] 88 % of control | dose: 64.0 mg/kg/injection, schedule: Q02DX009 (ip), vehicle: saline with Tween-80 95 % of control and 98 % of control | dose: 128.0 mg/kg/injection, schedule: Q02DX009 (ip), vehicle: saline with Tween-80 91 % of control | dose: 256.0 mg/kg/injection, schedule: Q02DX009 (ip), vehicle: saline with Tween-80 92 % of control

C1CCC(OB2OB(OC3CCCCC3)OB(OC3CCCCC3)O2)CC1
inactive: dose: 50.0 mg/kg/injection, schedule: Q01DX009 (ip), vehicle: other 103 % of control | dose: 100.0 mg/kg/injection, schedule: Q01DX009 (ip), vehicle: other 93 % of control | dose: 200.0 mg/kg/injection, schedule: Q01DX009 (ip), vehicle: other 102 % of control

COC(=O)c1ccc(-c2ccccc2)cc1
inactive: [1] 93 % of control | [2] 88 % of control | [3] 97 % of control | [4] 93 % of control

CC(=O)CC(C)=O.CC(=O)CC(C)=O.CC(=O)CC(C)=O.[V]
inactive: dose: 3.13 mg/kg/injection, schedule: Q01DX009 (ip), vehicle: saline 88 % of control | dose: 6.25 mg/kg/injection, schedule: Q01DX009 (ip), vehicle: saline 89 % of control

CCC1(c2ccccc2)SC(=O)NC1=O (stereo not drawn)
inactive: dose: 50.0 mg/kg/injection, schedule: Q01DX009 (ip), vehicle: saline with Tween-80 98 % of control | [5] 104 % of control

O=c1cnn(C2OC(CO)C(O)C2O)c(=S)[nH]1 (stereo not drawn)
inactive: dose: 100.0 mg/kg/injection, schedule: Q04DX003 (ip), vehicle: saline with Tween-80 93 % of control | dose: 200.0 mg/kg/injection, schedule: Q04DX003 (ip), vehicle: saline with Tween-80 95 % of control | dose: 400.0 mg/kg/injection, schedule: Q04DX003 (ip), vehicle: saline with Tween-80 88 % of control

OCCN1CCN(CC/C=C2\c3ccccc3COc3ccc(Cl)cc32)CC1
inactive: dose: 2.0 mg/kg/injection, schedule: Q01DX009 (ip), vehicle: saline 105 % of control | [6] 113 % of control

COc1cc2c(Cc3ccc(OC)c(OC)c3)[n+](Cc3ccccc3)ccc2cc1NCc1ccccc1
inactive: dose: 0.78 mg/kg/injection, schedule: Q01DX009 (ip), vehicle: saline with Tween-80 105 % of control | dose: 1.56 mg/kg/injection, schedule: Q01DX009 (ip), vehicle: saline with Tween-80 106 % of control | dose: 3.12 mg/kg/injection, schedule: Q01DX009 (ip), vehicle: saline with Tween-80 110 % of control | dose: 6.25 mg/kg/injection, schedule: Q01DX009 (ip), vehicle: saline with Tween-80 110 % of control

CCCCCCCC(N)=O
inactive: [5] 100 % of control | dose: 200.0 mg/kg/injection, schedule: Q01DX009 (ip), vehicle: saline with Tween-80 106 % of control

NC(N)=Nc1nc2ccccc2s1
inactive: dose: 25.0 mg/kg/injection, schedule: Q04DX003 (ip), vehicle: Klucel (hydroxypropylcellulose) (HPC) 105 % of control | dose: 50.0 mg/kg/injection, schedule: Q04DX003 (ip), vehicle: Klucel (hydroxypropylcellulose) (HPC) 97 % of control | dose: 100.0 mg/kg/injection, schedule: Q04DX003 (ip), vehicle: Klucel (hydroxypropylcellulose) (HPC) 97 % of control

CCCCCc1ccccc1
inactive: [4] 106 % of control | [7] 110 % of control | dose: 400.0 mg/kg/injection, schedule: Q01DX009 (ip), vehicle: Klucel (hydroxypropylcellulose) (HPC) 90 % of control

CCOC(=O)c1ccc(N)cc1
inactive: dose: 37.5 mg/kg/injection, schedule: Q01DX009 (ip), vehicle: saline with Tween-80 121 % of control | dose: 37.5 mg/kg/injection, schedule: Q04DX003 (ip), vehicle: saline with Tween-80 102 % of control | dose: 75.0 mg/kg/injection, schedule: Q01DX009 (ip), vehicle: saline with Tween-80 112 % of control | dose: 75.0 mg/kg/injection, schedule: Q04DX003 (ip), vehicle: saline with Tween-80 91 % of control | dose: 150.0 mg/kg/injection, schedule: Q01DX009 (ip), vehicle: saline with Tween-80 107 % of control | dose: 150.0 mg/kg/injection, schedule: Q04DX003 (ip), vehicle: saline with Tween-80 93 % of control

O=C(Nc1ccccc1C(F)(F)F)Nc1cccc2ccccc12
inactive: [4] 91 % of control | [7] 94 % of control

COC(=O)C[C@](O)(CCCC(C)(C)O)C(=O)O[C@@H]1C(OC)=C[C@]23CCCN2CCc2cc4c(cc2[C@H]13)OCO4
inactive: dose: 0.13 mg/kg/injection, schedule: Q01DX009 (ip), vehicle: saline sonified 107 % of control | dose: 0.25 mg/kg/injection, schedule: Q01DX009 (ip), vehicle: saline sonified 120 % of control | dose: 0.25 mg/kg/injection, schedule: Q01DX009 (ip), vehicle: saline with Tween-80 114 % of control | dose: 0.98 mg/kg/injection, schedule: Q04DX003 (ip), vehicle: saline 121 % of control | dose: 1.0 mg/kg/injection, schedule: Q01DX009 (ip), vehicle: saline with Tween-80 111 % of control | dose: 1.4 mg/kg/injection, schedule: Q04DX003 (ip), vehicle: saline 117 % of control | dose: 2.0 mg/kg/injection, schedule: Q04DX003 (ip), vehicle: saline 118 % of control | dose: 2.86 mg/kg/injection, schedule: Q04DX003 (ip), vehicle: saline 117 % of control

C[n+]1ccc(Nc2ccc(NC(=O)c3ccc(Nc4cc[n+](C)c5ccc([N+](=O)[O-])cc45)cc3)cc2)cc1
inactive: [6] 107 % of control | dose: 8.0 mg/kg/injection, schedule: Q01DX009 (ip), vehicle: saline 102 % of control | dose: 16.0 mg/kg/injection, schedule: Q01DX009 (ip), vehicle: saline 107 % of control | dose: 32.0 mg/kg/injection, schedule: Q01DX009 (ip), vehicle: saline 103 % of control

CCNC(C)(C)C(SSS)c1ccco1 (stereo not drawn)
inactive: [1] 98 % of control | [2] 94 % of control | [3] 104 % of control

O=C(O)c1ccc(O)c([N+](=O)[O-])c1
inactive: dose: 100.0 mg/kg/injection, schedule: Q01DX009 (ip), vehicle: saline 115 % of control | dose: 200.0 mg/kg/injection, schedule: Q01DX009 (ip), vehicle: saline 87 % of control

Cc1c2cc3c(c1O)C(=O)CC(O3)c1ccc(O)c(c1)-c1ccc(O)c(c1)C(=O)OCC1OC(O2)C(O)C(O)C1O (stereo not drawn)
inactive: dose: 0.13 mg/kg/injection, schedule: Q01DX009 (ip), vehicle: Klucel (hydroxypropylcellulose) (HPC) 91 % of control | dose: 0.25 mg/kg/injection, schedule: Q01DX009 (ip), vehicle: Klucel (hydroxypropylcellulose) (HPC) 94 % of control | dose: 0.5 mg/kg/injection, schedule: Q01DX009 (ip), vehicle: Klucel (hydroxypropylcellulose) (HPC) 95 % of control | dose: 1.0 mg/kg/injection, schedule: Q01DX009 (ip), vehicle: Klucel (hydroxypropylcellulose) (HPC) 94 % of control

CC(=O)NC(C=O)C(O)C(O)C(O)C(=O)O (stereo not drawn)
inactive: [2] 101 % of control | [3] 100 % of control | [4] 92 % of control

CC12CCC(O)CC1CCC1C2CCC2(C)C(c3ccc(=O)oc3)CC3OC312 (stereo not drawn)
inactive: dose: 0.31 mg/kg/injection, schedule: Q01DX009 (ip), vehicle: saline with Tween-80 102 % of control | dose: 0.62 mg/kg/injection, schedule: Q01DX009 (ip), vehicle: saline with Tween-80 94 % of control | dose: 1.25 mg/kg/injection, schedule: Q01DX009 (ip), vehicle: saline with Tween-80 95 % of control | dose: 2.5 mg/kg/injection, schedule: Q01DX009 (ip), vehicle: saline with Tween-80 98 % of control | dose: 5.0 mg/kg/injection, schedule: Q01DX009 (ip), vehicle: saline with Tween-80 100 % of control | dose: 10.0 mg/kg/injection, schedule: Q01DX009 (ip), vehicle: saline with Tween-80 95 % of control
